# Results reported in patent publication US9402839B2, “Selective targeting agents for mitochondria” (University of Pittsburgh—Of the Commonwealth System of …, priority 2006, dated 2016).
# Assays:
# [1] = test system: mouse embryonic cells (MEC); assay type: cell-based
# Procedure: Electron paramagnetic resonance (“EPR”) spectroscopy was used to monitor the cellular delivery of compounds 5a and 5b shown in FIG. 2 in mouse embryonic cells (“MEC”).
# The following conditions were used during the EPR-based analysis of the integration and reduction of nitroxide Gramicidin S-peptidyl conjugates in MECs. The MECs at a concentration of 10 million MECs per mL were incubated with 10 μM of 4-AT and compound 5a, respectively. Recovered nitroxide radicals in whole cells, mitochondria, and cytosol fractions were resuspended in phosphate buffer saline (“PBS”) in the presence and absence, respectively, of 2 μM K3Fe(CN)6.
# MECs = test: ActD-induced apoptosis in MECs (PS externalization, caspase-3 activation, DNA fragmentation); assay type: cell-based, mouse
# Description: Cells that annexin V-positive and PI-negative were considered apoptotic.
# [2] = test system: phospholipids in intestinal mucosa; test: Assay for peroxidation of phospholipids in gut mucosa after hemorrhagic shock; assay type: in vivo, rat; conditions: intraluminal 10 μM, 2 h HS
# Procedure: After 2 h of shock, the animals were euthanized with an intracardiac KCl bolus injection. The ileum was rapidly excised from the ileocecal valve to the most proximal gut segment. The tips of each segment were discarded. In order to assay caspases 3 and 7 activity and phospholipids peroxidation, mucosa samples were collected from gut segments immediately after hemorrhage and stored at −80° C. For permeability measurements, each segment was converted into an everted gut sac, as previously described by Wattanasirichaigoon et al., see Wattanasirichaigoon, S. et al., Effect of mesenteric ischemia and reperfusion or hemorrhagic shock on intestinal mucosal permeability and ATP content in rats, SHOCK, 12:127-133 (1999).
# Assay for peroxidation of phospholipids. Gut mucosal samples were homogenized. Lipids were extracted from homogenates using the Folch procedure, see M. Lees and G. H. Sloan-Stanley, A simple method for isolation and purification of total lipids from animal tissue, J. BIOL. CHEM. 226:497-509 (1957), and resolved by 2D HPTLC (High Performance Thin Layer Chromatography) as previously described, see Kagan, V. E. et al., A role for oxidative stress in apoptosis: Oxidation and externalization of phosphatidylserine is required for macrophage clearance of cell undergoing Fas-mediated apoptosis, J. IMMUMOL. 169:487-489 (2002). Spots of phospholipids were scraped from HPTLC plates and phospholipids were extracted from silica. Lipid phosphorus was determined by a micro-method, see Bottcher, C. J. F. et al., A rapid and sensitive sub-micro phosphorus determination, ANAL. CHIM. ACTA 24: 203-204 (1961).
# Oxidized phospholipids were hydrolyzed by pancreatic phospholipase A2 (2 U/μl) in 25 mM phosphate buffer containing 1 mM CaCl2, 0.5 mM EDTA and 0.5 mM sodium dodecyl sulfate (SDS) (pH 8.0, at room temperature for 30 min). Fatty acid hydroperoxides formed were determined by fluorescence HPLC of resorufin stoichiometrically formed during their microperoxidase 11-catalized reduction in presence of Amplex Red (for 40 min at 4° C.) (8). Fluorescence HPLC (ECLIPSE XDB-C18 column, 5 μm, 150×4.6 mm, mobile phase was composed of 25 mM disodium phosphate buffer (pH 7.0)/methanol (60:40 v/v); excitation wavelength 560 nm, emission wavelength 590 nm) was performed on a SHIMADZU LC-100AT HPLC system equipped with fluorescence detector (RF-10Ax1) and autosampler (SIL-10AD).
# In the subsequent series of in vivo studies, the affect of intraluminal XJB-5-131 on hemorrhage-induced peroxidation of phospholipids in intestinal mucosa was examined. […] In a preferred embodiment, 0.3 mL of test solution filled the lumen of each ileal compartment. […]
structure (smiles),measurement,setting,value
CC(C)C[C@@H](/C=C/[C@H](Cc1ccccc1)C(=O)N1CCC[C@H]1C(=O)N[C@H](C(=O)N[C@@H](CCCNC(=O)OCc1ccccc1)C(=O)NC1CC(C)(C)N([O])C(C)(C)C1)C(C)C)NC(=O)OC(C)(C)C [XJB-5-131],EPR triplet signals of nitroxide radicals in MECs and in mitochondria isolated from these cells,"[1]; 10 μM, no EPR signal in the cytosolic fraction",Distinctive characteristic triplet signals of nitroxide radicals were detected
same,integration and one-electron reduction in MECs (EPR signal increase upon ferricyanide),"[1]; 10 μM, with and without K3Fe(CN)6",resulted in integration and one-electron reduction
same,concentration in the mitochondria of cultured mouse embryonic cells,[1]; after incubation with solutions of the compounds,concentrated in the mitochondria
same,DNA fragmentation,"MECs; 10 μM, ActD 100 ng/mL",prevented DNA fragmentation
same,PS externalization (annexin V-positive cells),"MECs; 10 μM, ActD 100 ng/mL",reduced the number of annexin V-positive cells
same,caspase-3 activation,"MECs; 10 μM, ActD 100 ng/mL",prevented caspase-3 activation
same,anti-apoptotic protection / cytotoxicity at higher concentrations,MECs; concentrations in excess of 10 μM,either less protective or exhibited cytotoxicity
same,hemorrhage-induced peroxidation of cardiolipin (CL),[2],significantly ameliorated
same,peroxidation of phosphatidylcholine (PC),[2],no effect
same,peroxidation of phosphatidylethanolamine (PE),[2],small effect
same,peroxidation of phosphatidylserine (PS),[2],no effect
